Experimental data reported in ChEMBL document CHEMBL1133412, “Rational design, synthesis and structure-activity relationships of antitumor (E)-2-benzylidene-1-tetralones and (E)-2-benzylidene-1-indanones” (Bioorg Med Chem Lett, 2000).
Each block holds one molecule with its values, some of them ahead of it.

Legend:
MOLT-4 [1] = assay: Cytotoxicity was evaluated against Molt-4 tumor cell lines; format: functional, cell-based; conditions: Homo sapiens
HL-60 [2] = assay: Cytotoxicity evaluated against HL-60 tumor cell lines; Significant activity; format: functional, cell-based; conditions: Homo sapiens
NCI-H596 [3] = assay: Cytotoxicity evaluated against H596 tumor cell lines; Significant activity; format: functional, cell-based; conditions: Homo sapiens
Jurkat = assay: In vitro test for antitumor activity against human Jurkat cell line using a formazan dye (MTT) conversion assay.; format: functional, cell-based
WIL2 [4] = assay: Cytotoxicity evaluated against WIL2 tumor cell lines; Significant activity; format: functional, cell-based; conditions: Homo sapiens
K562 [5] = assay: Cytotoxicity evaluated against K562 tumor cell lines; Significant activity; format: functional, cell-based; conditions: Homo sapiens
MCF7 [6] = assay: Cytotoxicity evaluated against MCF-7 tumor cell lines; Significant activity; format: functional, cell-based; conditions: Homo sapiens
B16 [7] = assay: Cytotoxicity was evaluated against B16 tumor cell lines; Significant activity; format: functional, cell-based; conditions: Mus musculus
A549 [8] = assay: Cytotoxicity evaluated against A549 tumor cell lines; significant activity; format: functional, cell-based; conditions: Homo sapiens
L1210 [9] = assay: Cytotoxicity evaluated against L1210 tumor cell lines; Significant activity; format: functional, cell-based; conditions: Mus musculus
Tumor cell line = assay: In vivo testing against tumor cells that were placed in the polyvinylidene fluoride (PVDF) hollow fibers of capsules and then implanted in to mice intraperitoneally or subcutaneously; format: functional, Mus musculus
WI-38 [10] = assay: Cytotoxicity evaluated against WI38 tumor cell lines; Significant activity; format: functional, cell-based; conditions: Homo sapiens
CCRF-CEM [11] = assay: Cytotoxicity evaluated against CEM tumor cell lines; Significant activity; format: functional, cell-based; conditions: Homo sapiens
NCI-H292 [12] = assay: Cytotoxicity evaluated against H292 tumor cell lines; Significant activity; format: functional, cell-based; conditions: Homo sapiens
NIH3T3 [13] = assay: Cytotoxicity evaluated against NIH3T3 tumor cell lines; Significant activity; format: functional, cell-based; conditions: Mus musculus
WI-38 [14] = assay: Cytotoxicity was evaluated against WI38 tumor cell lines; Significant activity; format: functional, cell-based; conditions: Homo sapiens
NIH3T3 [15] = assay: Cytotoxicity was evaluated against NIH3T3 tumor cell lines; Slightly active; format: functional, cell-based; conditions: Mus musculus
NCI-H596 [16] = assay: Cytotoxicity was evaluated against H596 tumor cell lines; Slightly active; format: functional, cell-based; conditions: Homo sapiens
MOLT-4 [17] = assay: Cytotoxicity was evaluated against Molt-4 tumor cell lines; Slightly active; format: functional, cell-based; conditions: Homo sapiens
K562 [18] = assay: Cytotoxicity was evaluated against K562 tumor cell lines; Slightly active; format: functional, cell-based; conditions: Homo sapiens
NCI-H292 [19] = assay: Cytotoxicity was evaluated against H292 tumor cell lines; Slightly active; format: functional, cell-based; conditions: Homo sapiens
A549 [20] = assay: Cytotoxicity was evaluated against A549 tumor cell lines; Slightly active; format: functional, cell-based; conditions: Homo sapiens
CCRF-CEM [21] = assay: Cytotoxicity was evaluated against CEM tumor cell lines; Slightly active; format: functional, cell-based; conditions: Homo sapiens
L1210 [22] = assay: Cytotoxicity was evaluated against L1210 tumor cell lines; Slightly active; format: functional, cell-based; conditions: Mus musculus
WI-38 [23] = assay: Cytotoxicity was evaluated against WI38 tumor cell lines; Slightly active; format: functional, cell-based; conditions: Homo sapiens
MCF7 [24] = assay: Cytotoxicity was evaluated against MCF-7 tumor cell lines; Slightly active; format: functional, cell-based; conditions: Homo sapiens
WIL2 [25] = assay: Cytotoxicity was evaluated against WIL2 tumor cell lines; Slightly active; format: functional, cell-based; conditions: Homo sapiens
HL-60 [26] = assay: Cytotoxicity was evaluated against HL-60 tumor cell lines; Slightly active; format: functional, cell-based; conditions: Homo sapiens
B16 [27] = assay: Cytotoxicity was evaluated against B16 tumor cell lines; Slightly active; format: functional, cell-based; conditions: Mus musculus

Compound: COc1cc2c(c([N+](=O)[O-])c1O)C/C(=C\c1cc(C)c(O)c(C)c1)C2=O
Cytotoxicity (MOLT-4 [1]): Significant activity
Cytotoxicity (HL-60 [2]): Significant activity
Cytotoxicity (NCI-H596 [3]): Significant activity
Cytotoxicity (WI-38 [14]): Significant activity
IC50 (Jurkat): 9.3 µM
Cytotoxicity (WIL2 [4]): Significant activity
Cytotoxicity (K562 [5]): Significant activity
Cytotoxicity (MCF7 [6]): Significant activity
Cytotoxicity (B16 [7]): Significant activity
Cytotoxicity (A549 [8]): Significant activity
Cytotoxicity (L1210 [9]): Significant activity
Cytotoxicity (CCRF-CEM [11]): Significant activity
Cytotoxicity (NCI-H292 [12]): Significant activity
Cytotoxicity (NIH3T3 [13]): Significant activity

Compound: COc1cccc(/C=C2\CCc3cc(OC)c(OC)cc3C2=O)c1
Cytotoxicity (MOLT-4 [1]): Significant activity
Cytotoxicity (HL-60 [2]): Significant activity
Cytotoxicity (NCI-H596 [3]): Significant activity
Cytotoxicity (WI-38 [14]): Significant activity
IC50 (Jurkat): 5 µM
Cytotoxicity (WIL2 [4]): Significant activity
Cytotoxicity (K562 [5]): Significant activity
Cytotoxicity (MCF7 [6]): Significant activity
Cytotoxicity (B16 [7]): Significant activity
Cytotoxicity (A549 [8]): Significant activity
Cytotoxicity (L1210 [9]): Significant activity
Cytotoxicity (CCRF-CEM [11]): Significant activity
Cytotoxicity (NCI-H292 [12]): Significant activity
Cytotoxicity (NIH3T3 [13]): Significant activity

Compound: COc1cc(/C=C2\Cc3cc(OC)c(OC)cc3C2=O)cc(OC)c1
Cytotoxicity (MOLT-4 [1]): Significant activity
Cytotoxicity (HL-60 [2]): Significant activity
Cytotoxicity (NCI-H596 [3]): Significant activity
IC50 (Jurkat): 3 µM
Cytotoxicity (WIL2 [4]): Significant activity
Cytotoxicity (K562 [5]): Significant activity
Cytotoxicity (MCF7 [6]): Significant activity
Cytotoxicity (B16 [7]): Significant activity
Cytotoxicity (A549 [8]): Significant activity
Cytotoxicity (L1210 [9]): Significant activity
IP+SC score (Tumor cell line): <20
Cytotoxicity (WI-38 [10]): Significant activity
Cytotoxicity (CCRF-CEM [11]): Significant activity
Cytotoxicity (NCI-H292 [12]): Significant activity
Cytotoxicity (NIH3T3 [13]): Significant activity

Compound: COc1cc2c(c(N)c1OC)C(=O)/C(=C/c1cc(C)c(O)c(C)c1)C2
Cytotoxicity (MOLT-4 [1]): Significant activity
Cytotoxicity (HL-60 [2]): Significant activity
Cytotoxicity (NCI-H596 [3]): Significant activity
IC50 (Jurkat): 0.004 µM
Cytotoxicity (WIL2 [4]): Significant activity
Cytotoxicity (K562 [5]): Significant activity
Cytotoxicity (MCF7 [6]): Significant activity
Cytotoxicity (B16 [7]): Significant activity
Cytotoxicity (A549 [8]): Significant activity
Cytotoxicity (L1210 [9]): Significant activity
IP+SC score (Tumor cell line): >20
Cytotoxicity (WI-38 [10]): Significant activity
Cytotoxicity (CCRF-CEM [11]): Significant activity
Cytotoxicity (NCI-H292 [12]): Significant activity
Cytotoxicity (NIH3T3 [13]): Significant activity

Compound: COc1cc2c(cc1OC)C(=O)/C(=C/c1cccc([N+](=O)[O-])c1)C2
Cytotoxicity (NIH3T3 [15]): Weak activity
IC50 (Jurkat): 22 µM
Cytotoxicity (NCI-H596 [16]): Weak activity
Cytotoxicity (MOLT-4 [17]): Weak activity
Cytotoxicity (K562 [18]): Weak activity
Cytotoxicity (NCI-H292 [19]): Weak activity
Cytotoxicity (A549 [20]): Weak activity
Cytotoxicity (CCRF-CEM [21]): Weak activity
Cytotoxicity (L1210 [22]): Weak activity
Cytotoxicity (WI-38 [23]): Weak activity
Cytotoxicity (MCF7 [24]): Weak activity
Cytotoxicity (WIL2 [25]): Weak activity
Cytotoxicity (HL-60 [26]): Weak activity
Cytotoxicity (B16 [27]): Weak activity

Further molecules by falling IC50 (Jurkat), results first:

IC50 (Jurkat): 2 µM
Compound: COc1cc2c(cc1OC)C(=O)/C(=C/c1cc(Cl)cc(Cl)c1)C2
Cytotoxicity (MOLT-4 [1]): Significant activity
Cytotoxicity (HL-60 [2]): Significant activity
Cytotoxicity (NCI-H596 [3]): Significant activity
Cytotoxicity (WIL2 [4]): Significant activity
Cytotoxicity (K562 [5]): Significant activity
Cytotoxicity (MCF7 [6]): Significant activity
Cytotoxicity (B16 [7]): Significant activity
Cytotoxicity (A549 [8]): Significant activity
Cytotoxicity (L1210 [9]): Significant activity
IP+SC score (Tumor cell line): <20
Cytotoxicity (WI-38 [10]): Significant activity
Cytotoxicity (CCRF-CEM [11]): Significant activity
Cytotoxicity (NCI-H292 [12]): Significant activity
Cytotoxicity (NIH3T3 [13]): Significant activity

IC50 (Jurkat): 0.08 µM
Compound: COc1cc2c(cc1OC)C(=O)/C(=C/c1cc(C)cc(C)c1)C2
Cytotoxicity (MOLT-4 [1]): Significant activity
Cytotoxicity (HL-60 [2]): Significant activity
Cytotoxicity (NCI-H596 [3]): Significant activity
Cytotoxicity (WIL2 [4]): Significant activity
Cytotoxicity (K562 [5]): Significant activity
Cytotoxicity (MCF7 [6]): Significant activity
Cytotoxicity (B16 [7]): Significant activity
Cytotoxicity (A549 [8]): Significant activity
Cytotoxicity (L1210 [9]): Significant activity
IP+SC score (Tumor cell line): <20
Cytotoxicity (WI-38 [10]): Significant activity
Cytotoxicity (CCRF-CEM [11]): Significant activity
Cytotoxicity (NCI-H292 [12]): Significant activity
Cytotoxicity (NIH3T3 [13]): Significant activity

IC50 (Jurkat): 0.006 µM
Compound: COc1cc2c(cc1OC)C(=O)/C(=C/c1cc(C)c(O)c(C)c1)C2
Cytotoxicity (MOLT-4 [1]): Significant activity
Cytotoxicity (HL-60 [2]): Significant activity
Cytotoxicity (NCI-H596 [3]): Significant activity
Cytotoxicity (WIL2 [4]): Significant activity
Cytotoxicity (K562 [5]): Significant activity
Cytotoxicity (MCF7 [6]): Significant activity
Cytotoxicity (B16 [7]): Significant activity
Cytotoxicity (A549 [8]): Significant activity
Cytotoxicity (L1210 [9]): Significant activity
IP+SC score (Tumor cell line): >20
Cytotoxicity (WI-38 [10]): Significant activity
Cytotoxicity (CCRF-CEM [11]): Significant activity
Cytotoxicity (NCI-H292 [12]): Significant activity
Cytotoxicity (NIH3T3 [13]): Significant activity
